The NIST ThermoML archive (doi:10.1016/j.jct.2009.06.014)
Numbers after ± are expanded uncertainties.

Assay: xn = mol fraction of the nth substance listed
Details: 101 kPa, Liquid, Vibrating tube method, x1 = 1

In the case of `O` [water] + C1CCOC1, the mass density (323.15 K) is reported as 988.02 ± 0.2 kg/m3, the mass density (328.15 K) is reported as 985.68 ± 0.21 kg/m3 and the mass density (333.15 K) is reported as 983.17 ± 0.21 kg/m3.
